The values that follow come from patent US10508104B2, “6-hydroxy-5-(phenyl/heteroarylsulfonyl)pyrimidin-4(1H)-one as APJ agonists” (Bristol-Myers Squibb Company, priority 2016, dated 2019).

Usually EC50 stands for the midpoint of the concentration-response curve.

Molecules are shown by their SMILES.

For the first assay, the target named is human APJ receptor (Homo sapiens (Human), UniProt P35414). The experiment in a line: Intracellular cAMP accumulation assay (APJ hcAMP, HTRF). The assay is classed as cell-based. The settings on record: HEK293 cells stably expressing human APJ receptor; inhibition of forskolin-mediated cAMP production; read-out: Human APJ cAMP EC50 Potency range. The method, boiled down: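 HEK293 cells stably expressing human APJ, 5,000 per well, incubated 30 min at rt with compound, […] and 2 μM forskolin. cAMP measured by HTRF against a cAMP standard curve as inhibition of forskolin-driven production. EC50 from variable-slope sigmoidal fit.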
human APJ receptor, sequence (P35414 whole entry): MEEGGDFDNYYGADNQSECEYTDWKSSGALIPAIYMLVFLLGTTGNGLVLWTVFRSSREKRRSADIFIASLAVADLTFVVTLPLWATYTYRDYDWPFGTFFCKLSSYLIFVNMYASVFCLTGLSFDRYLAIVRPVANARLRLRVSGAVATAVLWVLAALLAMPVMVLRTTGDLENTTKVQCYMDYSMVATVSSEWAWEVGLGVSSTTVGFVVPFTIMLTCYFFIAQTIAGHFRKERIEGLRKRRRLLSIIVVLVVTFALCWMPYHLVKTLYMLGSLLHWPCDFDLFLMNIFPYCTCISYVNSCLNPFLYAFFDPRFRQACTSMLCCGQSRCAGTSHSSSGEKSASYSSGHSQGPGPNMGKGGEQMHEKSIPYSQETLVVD
In general terms: cAMP levels reflect the balance of adenylyl cyclase and phosphodiesterase activity.
Regarding `CCCCc1nc(=O)c(S(=O)(=O)c2ccc(Br)cc2)c(O)n1[C@@H](C)c1ccccc1` [Example 118, (S)-5-((4-Bromophenyl)sulfonyl)-2-butyl-6-hydroxy-1-(1-phenylethyl)pyrimidin-4(1H)-one], the EC50 is 100 to 300 nM.
Same read-out and setting: as for `CCCCc1nc(=O)c(S(=O)(=O)c2ccc(-c3ccncc3C)cc2)c(O)n1[C@H](c1cccc(C#N)c1)C1CC1` [Example 487, 3-[(S)-{2-butyl-6-hydroxy-5-[4-(3-methylpyridin-4-yl)benzenesulfonyl]-4-oxo-1,4-dihydropyrimidin-1-yl}(cyclopropyl)methyl] benzonitrile], the figure is 0.01 to 10 nM.
On the same count and under the same terms, as for `CC[C@@H](c1cccc(C#N)c1)n1c(CC2CC2)nc(=O)c(S(=O)(=O)c2ccc(-c3ccc(F)nc3C)cc2)c1O` [Example 444, 3-[(1S)-1-[2-(cyclopropylmethyl)-5-[4-(6-fluoro-2-methylpyridin-3-yl)benzenesulfonyl]-6-hydroxy-4-oxo-1,4-dihydropyrimidin-1-yl]propyl]benzonitrile], the figure is 0.01 to 10 nM; as for `COC[C@@H](c1cccc(C#N)c1)n1c(COC(C)C)nc(=O)c(S(=O)(=O)c2ccc(-c3cccnc3C)cc2)c1O` [Example 390, 3-[(1R)-1-{6-hydroxy-5-[4-(2-methylpyridin-3-yl)benzenesulfonyl]-4-oxo-2-[(propan-2-yloxy)methyl]-1,4-dihydropyrimidin-1-yl}-2-methoxyethyl]benzonitrile], 0.01 to 10 nM.
Consider `CCOCc1nc(=O)c(S(=O)(=O)c2ccc(-c3ccnc(F)c3C)cc2)c(O)n1[C@@H](CC)c1cccc(C#N)c1` [Example 437, 3-[(1S)-1-[2-(ethoxymethyl)-5-[4-(2-fluoro-3-methylpyridin-4-yl)benzenesulfonyl]-6-hydroxy-4-oxo-1,4-dihydropyrimidin-1-yl]propyl]benzonitrile], for which the EC50 fell in the range of 0.01 to 10 nM.
`COC[C@@H](c1ccccc1)n1c(CCC(C)C)nc(=O)c(S(=O)(=O)c2ccc(-c3ccnc(F)c3C)cc2)c1O` [Example 189, (R)-5-((4-(2-Fluoro-3-methylpyridin-4-yl)phenyl)sulfonyl)-6-hydroxy-2-isopentyl-1-(2-methoxy-1-phenylethyl)pyrimidin-4(1H)-one]: the EC50 is 0.01 to 10 nM.
`CCCCc1nc(=O)c(S(=O)(=O)c2ccc(-c3ccccc3C(=O)N(C)C)cc2)c(O)n1[C@@H](CC)c1cccc(C#N)c1` [Example 513, 4′-({2-butyl-1-[(1S)-1-(3-cyanophenyl)propyl]-6-hydroxy-4-oxo-1,4-dihydropyrimidin-5-yl}sulfonyl)-N,N-dimethyl-[1,1′-biphenyl]-2-carboxamide]: the EC50 was in the range of 0.01 to 10 nM.
As for `CCCCc1nc(=O)c(S(=O)(=O)c2ccc(-c3cccn(C)c3=O)cn2)c(O)n1[C@@H](CC)c1cccc(C#N)c1` [Example 485, 3-[(1S)-1-[2-butyl-6-hydroxy-5-({1′-methyl-2′-oxo-1′,2′-dihydro-[3,3′-bipyridine]-6-yl}sulfonyl)-4-oxo-1,4-dihydropyrimidin-1-yl]propyl]benzonitrile], the EC50 fell in the range of 0.01 to 10 nM.
Still for that read-out and setting: as for `CCCCc1nc(=O)c(S(=O)(=O)c2ccc(-c3cccnc3C)cc2)c(O)n1[C@@H](CC)c1ccccc1F` [Example 430, 2-butyl-1-[(1S)-1-(2-fluorophenyl)propyl]-6-hydroxy-5-[4-(2-methylpyridin-3-yl)benzenesulfonyl]-1,4-dihydropyrimidin-4-one], the figure is 0.01 to 10 nM; as for `COC[C@@H](c1cc(F)cc(F)c1)n1c(COC(C)C)nc(=O)c(S(=O)(=O)c2ccc(-c3ccnc(F)c3C)cc2)c1O` [Example 378, 1-[(1R)-1-(3,5-difluorophenyl)-2-methoxyethyl]-5-[4-(2-fluoro-3-methylpyridin-4-yl)benzenesulfonyl]-6-hydroxy-2-[(propan-2-yloxy)methyl]-1,4-dihydropyrimidin-4-one], 0.01 to 10 nM; as for `CCOCc1nc(=O)c(S(=O)(=O)c2ccc(-c3cccnc3C)cc2)c(O)n1[C@@H](CC)c1cccc(C#N)c1` [Example 445, 3-[(1S)-1-[2-(ethoxymethyl)-6-hydroxy-5-[4-(2-methylpyridin-3-yl)benzenesulfonyl]-4-oxo-1,4-dihydropyrimidin-1-yl]propyl]benzonitrile], 0.01 to 10 nM.
On the same count and under the same terms, as for `CCCCc1nc(=O)c(S(=O)(=O)c2ccc(-c3ccc(F)nc3C)cc2)c(O)n1[C@@H](CC)c1ccc(C#N)c(F)c1` [Example 519, 4-[(1S)-1-{2-butyl-5-[4-(6-fluoro-2-methylpyridin-3-yl)benzenesulfonyl]-6-hydroxy-4-oxo-1,4-dihydropyrimidin-1-yl}propyl]-2-fluorobenzonitrile], the figure is 0.01 to 10 nM.

Still in this assay, the particulars now being: human APJ, cAMP accumulation; read-out: Human APJ cAMP EC50 Potency range.
On to `COc1cccc(OC)c1-n1c(-c2cncc(C)c2)nc(=O)c(S(=O)(=O)c2ccc(-c3ccnc(F)c3C)cc2)c1O` [Example 274, 1-(2,6-dimethoxyphenyl)-5-[4-(2-fluoro-3-methylpyridin-4-yl)benzenesulfonyl]-6-hydroxy-2-(5-methylpyridin-3-yl)-1,4-dihydropyrimidin-4-one], for which the EC50 lay within 0.01 to 10 nM.
Consider `CCCCc1nc(=O)c(S(=O)(=O)c2ccc(-c3ccnc(F)c3C)cc2)c(O)n1[C@@H](COC)c1cccc(C#N)c1` [Example 253, 3-[(1R)-1-{2-butyl-5-[4-(2-fluoro-3-methylpyridin-4-yl)benzenesulfonyl]-6-hydroxy-4-oxo-1,4-dihydropyrimidin-1-yl}-2-methoxyethyl] benzonitrile], for which the EC50 fell in the range of 0.01 to 10 nM.
With `CCOCc1nc(=O)c(S(=O)(=O)c2ccc(Br)c(F)c2)c(O)n1[C@@H](COC)c1cccc(C#N)c1` [Example 301, 3-[(1R)-1-[5-(4-bromo-3-fluorobenzenesulfonyl)-2-(ethoxymethyl)-6-hydroxy-4-oxo-1,4-dihydropyrimidin-1-yl]-2-methoxyethyl] benzonitrile], the EC50 is 0.01 to 10 nM.
Consider `COC[C@@H](c1ccccc1)n1c(C2CCCO2)nc(=O)c(S(=O)(=O)c2ccc(-c3ccc(F)nc3C)cc2)c1O` (mixture of isomers) [Example 355, 5-[4-(6-fluoro-2-methylpyridin-3-yl)benzenesulfonyl]-6-hydroxy-1-[(1R)-2-methoxy-1-phenylethyl]-2-(oxolan-2-yl)-1,4-dihydropyrimidin-4-one], for which the EC50 lay in the range of 0.01 to 10 nM.
On the same count and under the same terms, as for `COC[C@@H](c1ccccc1)n1c(C2CCCO2)nc(=O)c(S(=O)(=O)c2ccc(-c3ccc(F)nc3)cc2)c1O` (mixture of isomers) [Example 354, 5-[4-(6-fluoropyridin-3-yl)benzenesulfonyl]-6-hydroxy-1-[(1R)-2-methoxy-1-phenylethyl]-2-(oxolan-2-yl)-1,4-dihydropyrimidin-4-one], the figure is 0.01 to 10 nM.
For `CCCCc1nc(=O)c(S(=O)(=O)c2ccc(-c3ccc(F)nc3C)cc2)c(O)n1[C@H]1CCCc2ccccc21` [Example 237, 2-butyl-5-[4-(6-fluoro-2-methylpyridin-3-yl)benzenesulfonyl]-6-hydroxy-1-[(1S)-1,2,3,4-tetrahydronaphthalen-1-yl]-1,4-dihydropyrimidin-4-one], the EC50 was in the range of 0.01 to 10 nM.

The assay is the same for the next values; noted with them: human APJ, intracellular cAMP accumulation; read-out: Human APJ cAMP EC50 Potency range.
As for `CCCCc1nc(=O)c(S(=O)(=O)C2CCN(C(=O)c3ccc(Cl)cc3)CC2)c(O)n1-c1c(OC)cccc1OC` [Example 112, 2-butyl-5-{[1-(4-chlorobenzoyl)piperidin-4-yl]sulfonyl}-1-(2,6-dimethoxyphenyl)-6-hydroxy-1,4-dihydropyrimidin-4-one], the EC50 is 0.01 to 10 nM.
In the case of `COC[C@@H](c1ccccc1)n1c(CCC(C)C)nc(=O)c(S(=O)(=O)c2ccc(-c3ccc(F)nc3)cc2)c1O` [Example 199, 5-[4-(6-fluoropyridin-3-yl)benzenesulfonyl]-6-hydroxy-1-[(1R)-2-methoxy-1-phenylethyl]-2-(3-methylbutyl)-1,4-dihydropyrimidin-4-one], the EC50 is 0.01 to 10 nM.
On the same count and under the same terms, as for `CCCCc1nc(=O)c(S(=O)(=O)c2ccc(-c3cncc(F)c3)cc2)c(O)n1[C@H]1CCc2ccccc21` [Example 168, 2-butyl-1-[(1S)-2,3-dihydro-1H-inden-1-yl]-5-[4-(5-fluoropyridin-3-yl)benzenesulfonyl]-6-hydroxy-1,4-dihydropyrimidin-4-one], the figure is 0.01 to 10 nM.
With `CCCCc1nc(=O)c(S(=O)(=O)c2ccc(-c3ccncc3C)cc2)c(O)n1[C@@H](COC)c1ccccc1` [Example 134, 2-butyl-6-hydroxy-1-[(1R)-2-methoxy-1-phenylethyl]-5-[4-(3-methylpyridin-4-yl)benzenesulfonyl]-1,4-dihydropyrimidin-4-one], the EC50 was in the range of 0.01 to 10 nM.
`CCCCc1nc(=O)c(S(=O)(=O)c2ccc(-c3cc(C)nc(C)c3)cc2)c(O)n1[C@H]1CCc2ccccc21` [Example 161, 2-butyl-1-[(1S)-2,3-dihydro-1H-inden-1-yl]-5-[4-(2,6-dimethylpyridin-4-yl)benzenesulfonyl]-6-hydroxy-1,4-dihydropyrimidin-4-one]: the EC50 lay within 100 to 300 nM.
Still for that read-out and setting: as for `CCCCc1nc(=O)c(S(=O)(=O)c2ccc(-c3cccc4cnccc34)cc2)c(O)n1-c1c(OC)cccc1OC` [Example 52, 2-butyl-1-(2,6-dimethoxyphenyl)-6-hydroxy-5-[4-(isoquinolin-5-yl)benzenesulfonyl]-1,4-dihydropyrimidin-4-one], the figure is 0.01 to 10 nM; as for `CCCCc1nc(=O)c(S(=O)(=O)c2ccc(-c3ccnc(F)c3C)cc2)c(O)n1[C@@H](COC)c1ccccc1` [Example 148, 2-butyl-5-[4-(2-fluoro-3-methylpyridin-4-yl)benzenesulfonyl]-6-hydroxy-1-[(1R)-2-methoxy-1-phenylethyl]-1,4-dihydropyrimidin-4-one], 0.01 to 10 nM.
Consider `CCCCc1nc(O)c(S(=O)(=O)c2ccc(Br)cc2)c(=O)n1C(C)c1cccnc1` (centres unmarked) [Example 187, 5-(4-bromobenzenesulfonyl)-2-butyl-6-hydroxy-3-[1-(pyridin-3-yl)ethyl]-3,4-dihydropyrimidin-4-one], for which the EC50 is 100 to 300 nM.
